Test: Dynamic vapor sorption (DVS), hygroscopicity
Assay type: physicochemical
Settings: for hygroscopicity (DVS, in words): FIGS. 5 and 6
Description: Dynamic Vapor Sorption DVS was measured on a VTI Model SGA-100 system. Measurement method: The relative humidity (RH) was changed in a controlled fashion, in 5% steps from 5.0% to 95.0% then back to 5.0% using the gravimetric vapor sorption system, and the weight percentage change (wt %) of the sample at each stage was measured.

| hygroscopicity (DVS, in words) | weight gain (DVS) (at 75% relative humidity (RH) at 25° C., FIG. 6) | weight increase (DVS) (upon increasing relative humidity from 5.0% to 95.0%, FIG. 5) | SMILES |
| --- | --- | --- | --- |
| some hygroscopicity | 4-6% |  | CCN(c1cc(-c2ccc(CN3CCOCC3)cc2)cc(C(=O)NCc2c(C)cc(C)[nH]c2=O)c1C)C1CCOCC1 [Polymorph A, 4-((3′-(((4,6-Dimethyl-2-oxo-1,2-dihydropyridin-3-yl)methyl)carbamoyl)-5′-(ethyl(tetrahydro-2H-pyran-4-yl)amino)-4′-methyl-[1,1′-biphenyl]-4-yl)methyl)morpholin-4-ium chloride] |
| non-hygroscopic |  | less than 1.5% | CCN(c1cc(-c2ccc(CN3CCOCC3)cc2)cc(C(=O)NCc2c(C)cc(C)[nH]c2=O)c1C)C1CCOCC1.Cl [Polymorph C, 4-((3′-(((4,6-Dimethyl-2-oxo-1,2-dihydropyridin-3-yl)methyl)carbamoyl)-5′-(ethyl(tetrahydro-2H-pyran-4-yl)amino)-4′-methyl-[1,1-biphenyl]-4-yl)methyl)morpholin-4-ium chloride] |
